From patent US20070265274A1, “4-(4-METHYLPIPERAZIN-1-YLMETHYL)-N-[4-METHYL-3-(4-PYRIDIN-3-YL)PYRIMIDIN-2-YLAMINO)PHENYL]-BENZAMIDE FOR TREATING MUTATED-RET KINASE ASSOCIATED DISEASES” (priority 2002, published 2007)
Where two headings read alike, the source gives them in different places.

What was measured:
[1] = test system: NIH3T3 cells expressing constitutively active RET MEN2A (RETC634 mutation); settings: for % of cell decrease: SALT I 500 nM, 9 days
Procedure: The RETC634 mutation is the most common germline mutation of the RET kinase occurring in 85% of multiple endocrine neoplasias type 2A. The effect of SALT I on growth of NIH3T3 cells stably expressing a constitutively active form of the RET kinase (RETC634 mutation) is investigated.
NIH3T3 cells expressing constitutively active RET MEN2A are allowed to plate overnight in 6-well plates. They are then grown in the presence of 1 or 5% serum with SALT I 500 nM or with a vehicle solvent (control) for 9 days, with media changes every 3 days. Cells are counted after harvesting with EDTA/trypsin solution on day 9 after initiation of treatments.

RET/PTC3 = settings: 100 nM SALT I; 25 min at room temperature; γP32-ATP
Procedure: Cell Line: PCCL3, a rat thyroid cell line, is maintained in H4 complete medium consisting of Coon's medium/F12 high zinc supplemented with 5% FBS, 0.3 mg/ml L-glutamine, 1 mU/ml TSH, 10 μg/ml insulin, 5 μg/ml apo-transferrin, 10 nM hydrocortisone, and penicillin/streptomycin. […] Stable transfections are performed first to establish clonal lines constitutively expressing the transactivator rtTA (composed of a fusion of the rtetR DNA binding domain and the VP16 activation domain). Individual rtTA-expressing clones are then explored for doxycyclin-inducible expression by transient transfection with a luciferase reporter construct under control of a tet-operator.
Confluent T-75 flasks of RET/PTC3 (PCCL3) cells incubated with or without doxycycline for 24 hours are washed with ice cold PBS containing 0.2 mM sodium ortho-vanadate. […] After the second wash, the reactions are boiled in 35 μl Laemmli buffer for 10 min, the proteins are subjected to SDS-PAGE (7.5%) and their phosphorylation measured by PhosphoImager densitrometry (Molecular Dynamics, Sunnyvale, Calif.) after transfer to nitrocellulose membranes. Protein loading is then normalized to total RET kinase protein determined by Western blot analysis using either the goat polyclonal anti-RET kinase antibody (Santa Cruz) or a mouse monoclonal (University of Cincinnati).

[2] = test system: PLCγ phosphorylation by RET/PTC; settings: 250 nM SALT I for 24 h; in comparison with samples without SALT I
Procedure: To further explore the effect of SALT I on RET kinase activity, pretreatment with SALT I on PLCγ phosphorylation is examined.
Ret-PTC3 cells are seeded at 10^5 cells/well in 6-well Corning plates. After 3 days, cells are treated with or without doxycycline in the presence of 250 nM of SALT I for 24 h. Cells are rinsed twice with cold (phosphate buffered saline) PBS containing 0.1 mM sodium orthovanadate, and left for 20 minutes in ice-cold RIPA buffer shaking gently at 4° C. Cell lysates are collected by centrifugation at 10,600 g for 20 min at 4° C. Protein assays are performed on aliquots of supernatants by the Coomassie Blue assay (Pierce, Rockford, Ill.). Western blot analysis are performed by running 100 μg of protein on SDS PAGE (5%), transfer to nitrocellulose membrane and probing initially with anti-phospho PLCγ antibody (Cell Signaling) and then with anti-PLCγ (Cell Signaling) for normalization.

CS(=O)(=O)O.Cc1ccc(NC(=O)c2ccc(CN3CCN(C)CC3)cc2)cc1Nc1nccc(-c2cccnc2)n1 [SALT I]
% of cell decrease ([1]; 1% serum): 42% | % of cell decrease ([1]; 5% serum): 15% | growth of RET kinase-transformed NIH3T3 fibroblasts ([1]; result in words): inhibits the growth | inhibition of autophosphorylation of RET/PTC3 (RET/PTC3): 40% | inhibition of phosphorylation of PLCγ [2]: 28%
